Reference: patent US20260130894A1, “COMPOSITION COMPRISING ISOQUINOLINE DERIVATIVE AS ACTIVE INGREDIENT FOR PREVENTION OR TREATMENT OF PARKINSON'S DISEASE” (ALTMEDICAL CO., LTD., priority 2022, published 2026)

Legend:
SH-SY5Y cell line = test: Mitophagy activity in SH-SY5Y cells expressing mt-Keima (FACS); format: cell-based, human; settings: FACS (FIG. 2A)
Description: (§1) It was confirmed whether CD1-012 synthesized in Example 1 increases mitophagy activity in various cell lines. To this end, CD1-012 and Comparative Example 1 (CCCP) were treated in the SH-SY5Y cell line, a human neuroblastoma cell line expressing mt-Keima fluorescent protein, and in the HeLa-Parkin cell line, a HeLa cervical cancer cell line expressing Parkin (E3 ligase). Following this treatment, the mitophagy activity of each sample was analyzed using flow cytometry (FACS), and the results are shown in FIGS. 2A to 2B.

HeLa-Parkin cell line = test: Mitophagy activity in HeLa-Parkin cells (FACS); format: cell-based, human; settings: FACS (FIG. 2B)
Description: as §1

BEAS-2B cell line = test: Autophagy activity in BEAS-2B cells expressing Keima (confocal microscope); format: cell-based, human; settings: 15 μM, 18 hours (FIG. 4B)
Description: It was confirmed whether CD1-012 synthesized in Example 1 specifically increases only mitophagy activity. To this end, the BEAS-2B cell line expressing mt-Keima was treated with CD1-012 (15 μM) or Comparative Example 1 (CCCP, 10 μM) for 18 hours, and mitophagy activity was analyzed using a confocal microscope. Additionally, to measure autophagy activity, the BEAS-2B cell line expressing Keima fluorescent protein was incubated in Hanks' balanced salt solution (HBSS) for 3 hours to induce a starvation condition (starv.), and the results were compared with samples treated with CD1-012 (15 μM) for 18 hours using a confocal microscope.

[1] = system: mitochondrial reactive oxygen species (ROS); test: Mitochondrial reactive oxygen species, MitoSOX assay; format: cell-based; settings: CD1-012 10 μM or 15 μM, CCCP 10 μM, 24 hours (FIG. 6)
Description: It was confirmed whether the isoquinoline derivative according to the present invention induces mitochondrial dysfunction, similar to CCCP. To this end, the CD1-012 (10 μM or 15 μM) and CCCP (10 μM) were treated for 24 hours, and the mitochondrial membrane potential and mitochondrial reactive oxygen species (ROS) levels in each sample were analyzed. Mitochondrial membrane potential was analyzed using the TMRM (tetramethylrhodamine methyl ester) assay, and mitochondrial ROS levels were analyzed using the MitoSOX assay.

[2] = system: BEAS-2B cell line, in which PINK1 was knocked down; test: Mitophagy activity in PINK1 knockdown (shPINK1) BEAS-2B cells (FACS); format: cell-based, human
Text: In this example, it was confirmed whether the mitophagy activation function of the isoquinoline derivative according to the present invention is dependent on the PINK1-Parkin pathway. […]
In the following example, it was confirmed whether the novel isoquinoline derivative according to the present invention has a therapeutic effect of preventing or improving Parkinson's disease. Most of all, it was confirmed whether the treatment with the isoquinoline derivative improves mitochondrial dysfunction of a Parkinson's disease cell model. To this end, first, the induction of mitophagy by CD1-012 was verified. […] In addition, to analyze whether the mitophagy-promoting activity of CD1-012 is dependent on PINK1, PINK1 expression was inhibited (using shPNIK1) in BEAS-2B cells, which is a human normal lung cell line expressing a mitochondrial fluorescent protein, and mitophagy activity was analyzed by flow cytometry (FACS).

[3] = system: wild type (WT) and PINK1-deficient (PINK1−/−) mouse embryonic fibroblasts (MEFs); test: Mitochondrial protein Cox2 level by western blotting in WT and PINK1-deficient MEFs; format: cell-based; settings: 40 μM, 24 hours (FIG. 8A)
[4] = system: PINK1-deficient Drosophila (B9); test: Mitochondrial function in Drosophila model of Parkinson's disease; format: in vivo
Description: In this example, to further verify the effect of the compound of the present invention (CD1-012) on improving mitochondrial dysfunction, a Drosophila model of Parkinson's disease was used. To this end, after administering CD1-012 to PINK1 gene-deficient Drosophila, mitochondrial function was analyzed. […] As a result, the number of damaged mitochondria (with abnormally swollen morphology) observed in the PINK1-deficient Drosophila was reduced in the CD1-012-treated group as compared to an untreated control (FIG. 9A). […] In addition, after 2 weeks of CD1-012 administration, it could be observed that the ATP production capacity of the brain tissue of the PINK11-deficient Drosophila was restored (FIG. 9C).

[5] = system: human nerve cell line H-SY5Y; test: Mitochondrial function in sporadic Parkinson's disease cell model (MPP+ or 6-OHDA); format: cell-based; settings: CD1-012 20 μM one day
Description: Sporadic Parkinson's disease has progressive motor/non-motor dysfunction symptoms, and most patients with Parkinson's disease have this disease. In this example, the therapeutic effect of CD1-012 on sporadic Parkinson's disease was confirmed. To this end, after a sporadic Parkinson's disease cell model was manufactured by treating a human nerve cell line H-SY5Y with the neurotoxins MPP+(62.5 μM) and 6-OHDA (40 μM) for two days, the cell model was treated with CD1-012 (20 μM) for one day and then the membrane potential and ATP production capacity of mitochondria were analyzed after two days.

[6] = system: mitochondria from the substantia nigra of the mice; test: Mitochondrial function in substantia nigra of MPTP mouse model (TMRM, ATP production); format: in vivo
Description: Subsequently, it was confirmed that the compound CD1-012 of the present invention has an effect of improving mitochondrial dysfunction using an animal model of Parkinson's disease. To this end, after separating mitochondria from the substantia nigra of the mice undergoing the behavioral experiment in Example 4, the membrane potential of mitochondria was analyzed through TMRM (100 nM, 37° C., 30 min) fluorescent staining, and the mitochondrial function was analyzed by measuring ATP production (analyzed for 5 mice per group).

[7] = system: dopaminergic neurons in the substantia nigra; test: Number of dopaminergic neurons in substantia nigra of MPTP mouse model (TH immunochemical staining); format: in vivo; settings: MPTP mice administered CD1-012, TH staining (FIGS. 13A and 13B)
Description: Subsequently, it was confirmed whether CD1-012 administration can inhibit dopaminergic neuron death in the substantia nigra of the animal model of Parkinson's disease. To this end, the number of dopaminergic neurons was measured by performing TH immunochemical staining on the substantia nigra of the mice undergoing the behavioral experiment in Example 4.

Oc1cc2c(cc1O)-c1cc3ccc(O)c(O)c3c[n+]1CC2 [CD1-012, 2,3,9,10-tetrahydroxy-5,6-dihydroisoquinolino[3,2-a]isoquinolin-7-ium bromide]
mitophagy activity compared to the control group (Con) (SH-SY5Y cell line): significantly increased mitophagy activity
mitophagy activity compared to the control group (Con) (HeLa-Parkin cell line): significantly increased mitophagy activity
autophagy activity compared to the untreated control group (BEAS-2B cell line): no significant difference in autophagy activity
mitochondrial ROS levels [1]: no increase in mitochondrial ROS was detected
mitophagy-promoting activity compared with CCCP (10 μM) ([2]; 20 μM, BEAS-2B, FACS (FIG. 8B)): mitophagy-promoting activity at a level similar to that of CCCP
mitophagy-promoting activity when PINK1 gene expression was inhibited ([2]; 20 μM, shPINK1 BEAS-2B, FACS (FIG. 8B)): mitophagy-promoting activity was not inhibited
mitophagy activation in PINK1 knockdown cell line (shPINK1) compared to control cell line (shNT) ([2]; CCCP 10 μM, CD1-012 15 μM, 18 hours (FIG. 7)): did not show a significant difference
Cox2 protein level [3]: significantly decreased
mitochondrial ROS in brain tissue (DCF-DA staining) ([4]; 1 mM for 2 weeks (FIG. 9B)): significantly inhibited
number of damaged mitochondria (abnormally swollen morphology) in dopaminergic neurons compared to untreated control ([4]; 1 mM for 2 weeks, brain tissue (FIG. 9A)): reduced
ATP production capacity of brain tissue ([4]; 2 weeks of administration (FIG. 9C)): restored
mitochondrial membrane potential ([5]; 6-OHDA (40 μM) model, analyzed after two days (FIG. 10B)): restored
ATP synthesis capacity of mitochondria ([5]; 6-OHDA (40 μM) model, analyzed after two days (FIG. 10D)): significantly restored
mitochondrial membrane potential ([5]; MPP+ (62.5 μM) model, analyzed after two days (FIG. 10A)): restored
ATP synthesis capacity of mitochondria ([5]; MPP+ (62.5 μM) model, analyzed after two days (FIG. 10C)): significantly restored
ATP synthesis capacity of mitochondria in substantia nigra ([6]; MPTP mice coadministered CD1-012 (FIG. 12B)): restoration
membrane potential of mitochondria in substantia nigra ([6]; MPTP mice coadministered CD1-012, TMRM (FIG. 12A)): restoration
number of dopaminergic neurons in substantia nigra [7]: restored to a level similar to the control
